The target in one test is α1-adrenergic receptors. The experiment in a line: α1-adrenoceptor radioligand binding assay ([3H]-prazosin, rat cortex). The following applies: rat cortex tissue, mean ± SEM. As for the experimental part: The α1- and α2-adrenoceptor radioligand binding assays were performed on the rat cerebral cortex using previously described methods. […] The brains were homogenized using the ULTRA-TURRAX homogenizer in 10 mL of an ice-cold 50 mM Tris-HCl buffer (pH 7.6). The homogenates were centrifuged at 20,000× g for 20 min (0–4 °C). Subsequently, the cell pellet was resuspended in the Tris–HCl buffer and centrifuged again. Radioligand binding assays were carried out in plates (MultiScreen/Millipore). The final incubation mixture, with a volume of 300 μL, consisted of 240 μL of the tissue suspension, 30 μL of the radioligand solution, and 30 μL of the buffer containing 7–8 concentrations of the studied compounds. In order to measure the unspecific binding, 10 μM phentolamine (for [^3H]-prazosin) or 10 μM clonidine (for [^3H]-clonidine) were utilized. The incubation was completed by rapid filtration through Whatman GF/C filters using a vacuum manifold (Millipore). The filters were then washed twice with the assay buffer and placed in scintillation vials with a liquid scintillation cocktail. Radioactivity was measured in a WALLAC 1409 DSA liquid scintillation counter (Perkin Elmer, USA). All the assays were performed in duplicates, and the inhibitory constants (Ki) were calculated.

Test [1] has as its system adrenaline-induced arrhythmia model in rats. Kind of test: Therapeutic antiarrhythmic activity in adrenaline-induced arrhythmia. The following applies: number of animals with event.
Experimental: The experiments were carried out according to the method described by Szekeres and Papp [71]. The heart rhythm disturbances, such as extrasystoles, conduction blocks, and bradycardia, were induced by iv injection of adrenaline (20 µg/kg) to anesthetized rats (thiopental, 75 mg/kg, ip). […] The Aspel ASCARD apparatus (standard II lead, with a tape of speed 50 mm/s and voltage calibration of 1 mV = 1 cm) was used for the ECG measurements. The ECG was recorded during the first 2 min and in the 5th, 10th, and 15th min after the adrenaline injection (Figure 3B). The lack or decreased amount of extrasystoles, atrioventricular blocks, and bradycardia in the ECG recordings compared to the control group was the criterion of antiarrhythmic activity [72].
Automated ECG waveform analysis was evaluated as described earlier [55], using Eleven Maze software version 0.1 from Eleven Products Sp. z o.o. […] The software, under expert supervision, recognized and classified the heart rhythm irregularities. It also calculated PQ, QRS, QTc, and rate parameters.
Setting [2] is: 1 mg/kg iv immediately after adrenaline 20 µg/kg.
The mark [3] stands for this setting: 5 mg/kg iv immediately after adrenaline 20 µg/kg.

With `COc1ccccc1N1CCN(Cc2cccc(COc3ccccc3C(N)=O)c2)CC1.Cl` [JJGW11, 2-[(3-{[4-(2-metoxyphenyl)piperazin-1-ylo]methyl}phenyl)metoxy}benzamide hydrochloride], the “Adrenergic Receptors—pKi α1” value on α1-adrenergic receptors turned out to be 8.07 ± 0.04. Also, in test [1] (setting [2]), the Blocks is recorded as 2/5, the Bradycardia is 1/5 and the Mortality is recorded as 0/5.
As to `Cl.NC(=O)c1ccccc1OCCCCCCN1CCN(c2cccc(Cl)c2)CC1` [JJGW03, 2-{6-[4-(3-chlorophenyl)piperazin-1-ylo]hexoxy}benzamide hydrochloride], at α1-adrenergic receptors, the “Adrenergic Receptors—pKi α1” value amounted to 8.11 ± 0.01. For the same molecule, in test [1] (setting [3]), the Blocks is 3/5, the Bradycardia is 1/5 and the Mortality is on record as 0/5.
For `COc1ccccc1N1CCN(Cc2ccc(COc3ccccc3C(N)=O)cc2)CC1.Cl` [JJGW12, 2-[(4-{[4-(2-metoxyphenyl)piperazin-1-ylo]methyl}phenyl)metoxy}benzamide hydrochloride], the “Adrenergic Receptors—pKi α1” value at α1-adrenergic receptors is recorded as 7.41 ± 0.01. In test [1] (setting [3]), the Blocks is reported as 6/6, the Bradycardia is reported as 6/6 and the Mortality is recorded as 6/6.
On to `Cl.NC(=O)c1ccccc1OCCCCN1CCN(c2cccc(Cl)c2)CC1` [JJGW01, 2-{4-[4-(3-chlorophenyl)piperazin-1-ylo]butoxy}benzamide hydrochloride], for which the “Adrenergic Receptors—pKi α1” value at α1-adrenergic receptors amounted to 8.40 ± 0.01. In test [1] (setting [2]), the Blocks is reported as 3/5, the Bradycardia is given as 2/5 and the Mortality was 0/5.
Take `Cl.NC(=O)c1ccccc1OCCCCCN1CCN(c2cccc(Cl)c2)CC1` [JJGW02, 2-{5-[4-(3-chlorophenyl)piperazin-1-ylo]pentoxy}benzamide hydrochloride]: at α1-adrenergic receptors, the “Adrenergic Receptors—pKi α1” value worked out at 8.33 ± 0.02. In test [1] (setting [3]), the Blocks is recorded as 1/6, the Bradycardia is recorded as 2/6 and the Mortality is 1/6.

Values taken from article PMC9820316, “Novel Arylpiperazine Derivatives of Salicylamide with α1-Adrenolytic Properties Showed Antiarrhythmic and Hypotensive Properties in Rats” (International Journal of Molecular Sciences, 2022).
